“And” between values parts separate entries of the source, which are not always exact repeats. Equal entries are not always repeated. Where two headings read alike, the source gives them in different places.
Tests used:
Nav1.7 [1] = target: T1, Nav1.7 (Homo sapiens (Human), UniProt Q15858); assay: EFS-FRET assay; type: cell-based; conditions: CHO cells expressing human Nav1.7 channels; read-out: IC50 against Nav1.7
Method: This screen is used to determine the effects of compounds on human Nav1.7 channels, utilizing electrical field stimulation (EFS) system in 96-well plate format on FDSS (Hamamatsu Photonics) platform. The changes of membrane potential are monitored with FRET dye pair, DiSBAC2(3) and PTS 18.
CHO (Chinese hamster ovary) cells expressing human Nav1.7 channels are grown in T225 flasks, in a 5% CO2 humidified incubator to about 80% confluence. Media composition consists of HAM/F12 with Glutamax I, 10% FCS, 100 units/mL penicillin and 100 microgram/mL hygromycin.
Seed each cell lines (1×10^5 cells/well) into 96-well plates prior to experimentation.
Incubate at 37° C. in 5% CO2 for 24 hours.
Wash each well with assay buffer (140 mM NaCl, 4.5 mM KCl, 10 mM D-Glucose, 2 mM CaCl2, 1 mM MgCl2, 10 mM HEPES, pH 7.4 adjusted with NaOH) twice.
Add 1st loading solution containing 10 microM PTS 18 and 0.06% Pluronic F-127 in assay buffer.
Incubate the plate at rt in dark for 1 hour.
Remove 1st loading solution and add 2nd loading solution containing 12.5 microM DiSBAC2(3), 1.25 mM Xylene Fast Yellow and 0.0075% Pluronic F-127 in assay buffer.
Place the plate under the dark at rt for 25 minutes.
Add compound solutions into the assay plate.
Set the assay plate in FDSS and place an EFS device on the plate.
Measure EFS-induced fluorescent response by FDSS.
The data are analyzed and reported as normalized ratios of intensities measured at […]. The process of calculating these ratios is performed as follows:
(§1) This analysis is performed using a computerized specific program designed for FDSS generated data. Fluorescence ratio values are plotted using XLfit to determine an IC50 value for each compound.

Nav1.5 [2] = target: T2, Nav1.5 (Homo sapiens (Human), UniProt Q14524); assay: FRET assay; type: cell-based; conditions: HEK293 cells expressing human Nav1.5 channels; read-out: activity (IC50) against Nav1.5
Method: This screen is used to determine the effects of compounds on human Nav1.5 channels, utilizing the cell imaging technology by Hamamatsu Photonics's Functional Drug Screening System (FDSS). The changes of membrane potential are monitored with fluorescent membrane potential dye pair, DiSBAC2(3) and CC2-DMPE, using FRET technology.
HEK293 cells expressing human Nav1.5 channels are grown in T225 flasks, in a 5% CO2 humidified incubator to about 80% confluence. HEK293 cells expressing human Nav1.5 channels are maintained in Dulbecco's Modified Eagle Medium (high glucose) supplemented with 10% fetal calf serum (FCS), 100 units/mL Penicillin, 100 microgram/mL Streptomycin and 500 microgram/mL Geneticine. […]
The data is analyzed and reported as normalized ratios of intensities measured in the 465 nm and 575 nm channels. […]
“FI465B”=the mean of fluorescence intensity as baseline (before Na^+ ligand addition) at 465 nm
“FI575B”=the mean of fluorescence intensity as baseline (before Na^+ ligand addition) at 575 nm
“FI465Max” maximum fluorescence intensity at 465 nm after Na^+ stimulation
“FI575Min”=minimum fluorescence intensity at 575 nm after Na^+ stimulation
as §1

Nav1.7 [3] = target: T1, Nav1.7; assay: Manual patch clamp assay, two pulse protocol; type: cell-based
Method: Manual patch clamp recordings are conducted at RT using the voltage-clamp amplifier (Axon Instruments or HEKA electronik). Electrodes are pulled with P-97 electrode puller (Sutter Instrument). The electrode resistances are 1-3 MOhm when intercellular solution is filled. Currents are lowpass filtered between 2-5 kHz and digitally sampled at 10 kHz.
The extracellular and intercellular solutions for human Nav1.7 and NaV1.5 consist of the following composition:
Extracellular recording solution (mM): 135 NaCl, 5 KCl, 2 CaCl2, 1 MgCl2, 10 HEPES, and 10 Glucose, pH 7.4 adjusted with NaOH; and
Intercellular solution (mM): 120 CsF, 15 NaCl, 10 EGTA, and 10 HEPES, pH 7.2 adjusted with CsOH.
After whole-cell configuration is achieved, cell is monitored at least 10 minutes to allow cell dialysis with pipette solution. To evaluate of inhibitory effects of test compounds, the cells are clamped at −120 or −130 mV. […]
Peak currents evoked by Test 1 and Test 2 pulses are sampled with Clampex (Axon Instruments) or Pulse+Pulse Fit (HEKA). Averaged peak currents under vehicle or test compounds are calculated from 3 data points at end of each condition. Inhibitory effect (% inhibition) of test compound is calculated as bellow; % inhibition=[1−Averaged peak current (Compound)/Averaged peak current (Vehicle)]×100 [Math.5] […]

Nav1.7 [4] = target: T1, Nav1.7; assay: Affinity to resting state (Kr) and inactivated state (Ki), manual patch clamp; type: cell-based; conditions: read-out: Ki (inactivated state) against Nav1.7
Description: Affinity to Resting State (Kr) and Inactivated State (Ki) of Test Compound
The normalized steady-state inactivation curve is constructed using 2 sec (for vehicle) or 60 sec (for drugs) conditioning pulse to different potentials followed immediately by the test pulse to −10 mV. Peak currents are plotted as fraction of the maximum current at the conditioning potentials ranging from −120 mV to 0 mV for Nav1.7. V1/2 and k values are estimated from Boltzmann fits. The affinity of test compound to resting state of Na channels (Kresting or Kr) is assessed by depolarizing test pulse from a negative holding potential of −130 mV, where virtually all channels are in the resting state. Kr value is calculated by a conventional 1:1 binding model: Kresting(Kr)={[drug]Imax,drug/(Imax,control−Imax,drug)} [Math.6] where Kresting (=Kr) is a dissociation constant for the resting state and [drug] is compound concentration. Imax,control and Imax,drug are peak currents in the absence and presence of compound, respectively.
Interaction of the compound with the channel on inactivated state is evaluated by the following equation: Kinact(Ki)={[drug]/((1+[drug]/Kr)*exp(−ΔV/k)−1)} [Math.7] where Kinact (=Ki) is a dissociation constant for the inactivated state. ΔV is the compound-induced voltage shift of half maximal voltage of Boltzmann curve and k is the slop factor on presense of compound.

Nav1.5 [5] = target: T2, Nav1.5; assay: Automated electrophysiology assay (Qpatch HTX); type: cell-based; conditions: Test 2 pulse, read-out: Inactivated IC50 against Nav1.5
Method: Automated Electrophysiology Assay
Automated patch clamp recordings are conducted for evaluation of inhibitory effect against Nav1.5 with the Qpatch HTX system according the manufacturer's specifications (Sophion).
The extracellular and intercellular solutions consist of the following composition:
Extracellular recording solution (mM): 137 NaCl, 4 KCl, 1.8 CaCl2, 1 MgCl2, 10 HEPES, and 10 Glucose, pH 7.4 adjusted with NaOH
Intercellular solution (mM): 135 CsF, 10 NaCl, 5 EGTA, and 10 HEPES, pH 7.3 adjusted with CsOH.
To evaluate of inhibitory effects of test compounds against Nav1.5, the cells are clamped at −110 mV. […]
Peak currents evoked by Testl and Test 2 pulses are sampled with Qpatch assay software (Sophion). Averaged peak currents under vehicle or test compounds are calculated from 3 data points at end of each condition. Inhibitory effect (% inhibition) of test compound is calculated as bellow; % inhibition=[1−Averaged peak current (Compound)/Averaged peak current (Vehicle)]×100 [Math.4]
Inhibitory effects (% inhibition) of each concentration are measured from at least 2 cells. Averaged inhibitory effects are plotted against test concentration and IC50 values at Test 1 (Closed IC50) or Test 2 (Inactivated IC50) are calculated with Hill equation, respectively. […]

Nav1.7 [6] = target: T1, Nav1.7; conditions: data cited from the table at page 103 in WO2012/007868; read-out: IC50 against Nav1.7 channel; cited from earlier work

T1 sequence (Q15858 whole entry): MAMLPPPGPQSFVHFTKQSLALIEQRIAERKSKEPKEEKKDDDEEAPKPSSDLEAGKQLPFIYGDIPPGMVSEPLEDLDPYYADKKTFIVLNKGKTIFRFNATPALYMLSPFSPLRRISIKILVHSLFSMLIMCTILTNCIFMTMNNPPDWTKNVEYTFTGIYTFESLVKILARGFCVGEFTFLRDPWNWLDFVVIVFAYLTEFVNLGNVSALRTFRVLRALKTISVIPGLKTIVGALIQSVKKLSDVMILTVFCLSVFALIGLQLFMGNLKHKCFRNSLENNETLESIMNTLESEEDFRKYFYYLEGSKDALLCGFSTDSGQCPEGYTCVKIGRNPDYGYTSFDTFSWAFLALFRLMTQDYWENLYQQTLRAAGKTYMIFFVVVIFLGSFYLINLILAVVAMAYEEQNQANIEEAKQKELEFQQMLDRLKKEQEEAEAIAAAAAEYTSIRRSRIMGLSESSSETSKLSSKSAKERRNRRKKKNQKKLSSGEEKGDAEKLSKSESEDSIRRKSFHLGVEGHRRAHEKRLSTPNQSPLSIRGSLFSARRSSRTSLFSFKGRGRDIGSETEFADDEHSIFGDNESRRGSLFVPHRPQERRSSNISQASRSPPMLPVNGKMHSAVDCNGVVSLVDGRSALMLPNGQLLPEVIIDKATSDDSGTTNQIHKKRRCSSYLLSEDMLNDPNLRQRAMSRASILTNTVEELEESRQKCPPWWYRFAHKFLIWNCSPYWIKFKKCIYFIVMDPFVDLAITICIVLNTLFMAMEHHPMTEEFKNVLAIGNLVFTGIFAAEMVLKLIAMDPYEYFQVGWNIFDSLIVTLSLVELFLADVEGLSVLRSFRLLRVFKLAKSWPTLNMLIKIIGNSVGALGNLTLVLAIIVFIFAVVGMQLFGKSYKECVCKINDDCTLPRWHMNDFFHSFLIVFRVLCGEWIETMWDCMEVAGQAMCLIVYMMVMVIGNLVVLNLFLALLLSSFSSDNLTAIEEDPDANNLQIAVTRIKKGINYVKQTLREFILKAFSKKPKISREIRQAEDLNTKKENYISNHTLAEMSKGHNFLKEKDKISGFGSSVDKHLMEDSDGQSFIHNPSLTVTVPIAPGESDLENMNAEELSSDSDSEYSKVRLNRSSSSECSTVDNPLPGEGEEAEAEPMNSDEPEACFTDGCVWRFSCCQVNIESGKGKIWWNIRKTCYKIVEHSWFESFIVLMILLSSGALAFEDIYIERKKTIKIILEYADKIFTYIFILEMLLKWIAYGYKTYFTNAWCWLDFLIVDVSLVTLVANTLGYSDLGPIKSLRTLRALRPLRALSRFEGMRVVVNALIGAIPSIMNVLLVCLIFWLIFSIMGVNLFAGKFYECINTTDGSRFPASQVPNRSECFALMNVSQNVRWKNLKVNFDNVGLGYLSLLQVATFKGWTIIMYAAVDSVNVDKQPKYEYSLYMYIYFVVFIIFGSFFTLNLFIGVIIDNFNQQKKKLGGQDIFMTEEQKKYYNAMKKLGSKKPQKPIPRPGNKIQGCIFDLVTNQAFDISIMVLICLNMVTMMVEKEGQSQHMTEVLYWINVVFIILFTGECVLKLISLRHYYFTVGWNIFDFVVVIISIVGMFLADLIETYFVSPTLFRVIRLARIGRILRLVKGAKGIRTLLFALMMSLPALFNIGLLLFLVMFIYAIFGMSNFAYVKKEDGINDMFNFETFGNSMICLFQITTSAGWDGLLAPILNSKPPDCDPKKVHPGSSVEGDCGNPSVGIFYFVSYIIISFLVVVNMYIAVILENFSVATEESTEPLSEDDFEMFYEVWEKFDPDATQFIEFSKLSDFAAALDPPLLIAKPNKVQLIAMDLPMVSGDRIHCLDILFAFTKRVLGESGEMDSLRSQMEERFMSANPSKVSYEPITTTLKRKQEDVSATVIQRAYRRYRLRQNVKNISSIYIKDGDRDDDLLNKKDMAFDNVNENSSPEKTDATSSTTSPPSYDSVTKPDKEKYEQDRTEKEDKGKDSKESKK
T2 sequence (Q14524 whole entry): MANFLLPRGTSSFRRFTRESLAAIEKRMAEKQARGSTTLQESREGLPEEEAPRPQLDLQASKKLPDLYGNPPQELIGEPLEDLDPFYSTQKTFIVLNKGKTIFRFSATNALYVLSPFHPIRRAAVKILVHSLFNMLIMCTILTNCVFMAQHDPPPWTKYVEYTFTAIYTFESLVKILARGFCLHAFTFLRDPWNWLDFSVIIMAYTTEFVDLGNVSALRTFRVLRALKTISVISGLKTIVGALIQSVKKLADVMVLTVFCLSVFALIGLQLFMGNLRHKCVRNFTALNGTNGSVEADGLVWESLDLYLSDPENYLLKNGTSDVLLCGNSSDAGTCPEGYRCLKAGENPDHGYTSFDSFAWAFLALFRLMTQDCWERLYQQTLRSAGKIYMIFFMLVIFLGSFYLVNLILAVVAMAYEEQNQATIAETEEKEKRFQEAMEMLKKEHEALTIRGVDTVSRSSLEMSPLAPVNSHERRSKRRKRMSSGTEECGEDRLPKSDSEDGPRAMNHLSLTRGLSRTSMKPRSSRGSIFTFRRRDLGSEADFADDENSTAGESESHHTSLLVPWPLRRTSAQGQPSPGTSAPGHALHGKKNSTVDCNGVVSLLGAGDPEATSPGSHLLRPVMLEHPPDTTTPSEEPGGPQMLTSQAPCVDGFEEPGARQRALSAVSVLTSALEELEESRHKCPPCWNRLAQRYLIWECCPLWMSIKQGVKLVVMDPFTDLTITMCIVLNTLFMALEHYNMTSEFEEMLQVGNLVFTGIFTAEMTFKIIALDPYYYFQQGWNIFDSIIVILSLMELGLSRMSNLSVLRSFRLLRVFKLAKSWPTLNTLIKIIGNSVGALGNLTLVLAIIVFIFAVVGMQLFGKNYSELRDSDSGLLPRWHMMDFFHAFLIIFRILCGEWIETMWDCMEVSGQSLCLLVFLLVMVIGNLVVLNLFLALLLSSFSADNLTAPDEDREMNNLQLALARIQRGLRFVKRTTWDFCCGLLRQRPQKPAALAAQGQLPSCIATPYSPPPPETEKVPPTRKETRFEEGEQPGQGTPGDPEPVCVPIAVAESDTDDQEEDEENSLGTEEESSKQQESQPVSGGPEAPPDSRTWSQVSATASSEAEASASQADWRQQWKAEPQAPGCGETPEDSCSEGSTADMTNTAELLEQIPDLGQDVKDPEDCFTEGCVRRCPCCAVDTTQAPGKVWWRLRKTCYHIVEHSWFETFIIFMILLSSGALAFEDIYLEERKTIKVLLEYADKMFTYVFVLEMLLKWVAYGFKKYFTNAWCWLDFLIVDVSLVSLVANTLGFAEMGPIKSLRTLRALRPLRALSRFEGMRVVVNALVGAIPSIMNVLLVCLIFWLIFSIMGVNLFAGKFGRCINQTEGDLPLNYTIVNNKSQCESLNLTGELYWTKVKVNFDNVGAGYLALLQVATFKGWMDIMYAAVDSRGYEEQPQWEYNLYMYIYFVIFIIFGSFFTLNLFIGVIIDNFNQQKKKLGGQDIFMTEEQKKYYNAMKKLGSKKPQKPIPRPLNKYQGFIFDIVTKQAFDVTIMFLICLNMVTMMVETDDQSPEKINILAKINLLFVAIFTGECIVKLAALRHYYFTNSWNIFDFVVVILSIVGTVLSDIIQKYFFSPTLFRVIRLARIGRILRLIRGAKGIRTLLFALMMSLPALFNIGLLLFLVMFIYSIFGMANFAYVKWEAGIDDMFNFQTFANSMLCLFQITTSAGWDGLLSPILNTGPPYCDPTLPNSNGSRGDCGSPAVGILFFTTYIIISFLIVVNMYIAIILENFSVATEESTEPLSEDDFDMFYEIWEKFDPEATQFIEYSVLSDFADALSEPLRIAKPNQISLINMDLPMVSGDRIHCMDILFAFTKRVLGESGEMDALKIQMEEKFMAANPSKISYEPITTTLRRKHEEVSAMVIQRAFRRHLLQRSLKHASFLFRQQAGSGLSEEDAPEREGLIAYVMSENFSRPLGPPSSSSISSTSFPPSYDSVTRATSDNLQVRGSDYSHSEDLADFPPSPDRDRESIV

Row | IC50 (Nav1.7 [1]) | Structure (SMILES) | further results
1 | 50 nM | CS(=O)(=O)NC(=O)c1ccc(COc2cccc(-c3ccc(OCC4CC4)nc3)c2)c(F)c1 [Example 14, 4-((3-(6-(cyclopropylmethoxy)pyridin-3-yl)phenoxy)methyl)-3-fluoro-N-(methylsulfonyl)benzamide] | –
2 | 50 nM | CS(=O)(=O)NC(=O)c1cc(F)c(COc2cccc(-c3ccc(OCC4CC4)nc3)c2)cc1F [Example 24, 4-((3-(6-(cyclopropylmethoxy)pyridin-3-yl)phenoxy)methyl)-2,5-difluoro-N-(methylsulfonyl)benzamide] | –
3 | > 3000 nM | CS(=O)(=O)NC(=O)c1ccc(COc2cccc(-c3cccnc3)c2)cc1 [reference compound (A), reference compound] | –
4 | 1300 nM | CS(=O)(=O)NC(=O)c1ccc(COc2cccc(-c3cccnc3)c2)c(F)c1 [reference compound (B), reference compound] | –
5 | 600 nM | CS(=O)(=O)NC(=O)c1cc(F)c(COc2cccc(-c3cccnc3)c2)cc1F [reference compound (C), reference compound] | –

The remaining lines, values behind:

Row | Structure (SMILES) | IC50 (Nav1.7 [1]) | further results
6 | CS(=O)(=O)NC(=O)c1ccc(COc2cccc(-c3ccc(OCC4CC4)nc3)c2)cc1 [Example 2, 4-((3-(6-(cyclopropylmethoxy)pyridin-3-yl)phenoxy)methyl)-N-(methylsulfonyl)benzamide] | 84 nM and 80 nM | IC50 (Nav1.5 [2]): > 30000 nM; selectivity for Nav1.7 over Nav1.5 (Nav1.7 [3]): 75 fold; Ki (Nav1.7 [4]): 22 nM
7 | CS(=O)(=O)NC(=O)c1ccc(COc2cc(F)cc(-c3ccc(OCC4CC4)nc3)c2)cc1 [Example 30, 4-((3-(6-(cyclopropylmethoxy)pyridin-3-yl)-5-fluorophenoxy)methyl)-N-(methylsulfonyl)benzamide] | – | IC50 (Nav1.5 [5]): > 30000 nM
8 | CS(=O)(=O)NC(=O)c1ccc(COc2cccc(-c3cc(CC4CC4)on3)c2)c(F)c1 [Example 84, 4-((3-(5-(cyclopropylmethyl)isoxazol-3-yl)phenoxy)methyl)-3-fluoro-N-(methylsulfonyl)benzamide] | 50 nM | –
9 | CS(=O)(=O)NC(=O)c1ccc(COc2cccc(C3CCNCC3)c2)cc1 [WO2012/007868 Example 35] | – | IC50 (Nav1.7 [6]): > 3000 nM
10 | Cc1c(OCc2cc(F)c(C(=O)NS(C)(=O)=O)cc2F)cccc1-n1cccn1 [WO2012/007868 Example 102] | – | IC50 (Nav1.7 [6]): > 3000 nM
